The target of assay [1] is T1, G-protein coupled bile acid receptor 1 (Homo sapiens, UniProt Q8TDU6).
T1 sequence (Q8TDU6 whole entry): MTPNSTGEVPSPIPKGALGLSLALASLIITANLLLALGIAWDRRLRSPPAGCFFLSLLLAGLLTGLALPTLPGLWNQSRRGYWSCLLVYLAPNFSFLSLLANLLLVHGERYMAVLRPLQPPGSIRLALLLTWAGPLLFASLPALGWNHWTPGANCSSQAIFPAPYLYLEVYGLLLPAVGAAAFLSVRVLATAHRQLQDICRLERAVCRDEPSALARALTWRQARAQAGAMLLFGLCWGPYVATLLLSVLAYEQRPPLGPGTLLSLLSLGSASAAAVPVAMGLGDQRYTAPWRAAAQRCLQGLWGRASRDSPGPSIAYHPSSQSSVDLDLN
As to the kind of experiment: TGR5/CRE Luciferase Assay: In the following tables TGR5 activation by compounds and subsequent increase in intracellular cAMP were evaluated using a luciferase reporter gene assay. Human embryonic kidney (HEK) 293 cells were transiently co-transfected with pCMV tag4b-TGR5 h (to follow hTGR5 activation) or pCMV AC6-TGR5m (to follow mTGR5 activation) expression plasmids and the pCRE TA-Luciferase reporter plasmid using the JET PEI reagent (Polyplus transfection). Transfected cells were seeded in 96-well plates and incubated overnight with the test compounds at increasing concentrations tested in duplicate. Lithocolic acid (LCA) at 10 μM was used as a positive reference compound. The cAMP-dependent luciferase expression was followed using the BrightGlo reagent according to the manufacturer (Promega) instructions. Luminescence was read with a Mithras plate reader (Berthold). […] Concentration-response curves were fitted by a nonlinear regression analysis to a 4 parameter logistic equation. The class given is cell-based.

The target in assay [2] is T2, G-protein coupled bile acid receptor 1 (Mus musculus, UniProt Q80SS6).
T2 sequence (Q80SS6 whole entry): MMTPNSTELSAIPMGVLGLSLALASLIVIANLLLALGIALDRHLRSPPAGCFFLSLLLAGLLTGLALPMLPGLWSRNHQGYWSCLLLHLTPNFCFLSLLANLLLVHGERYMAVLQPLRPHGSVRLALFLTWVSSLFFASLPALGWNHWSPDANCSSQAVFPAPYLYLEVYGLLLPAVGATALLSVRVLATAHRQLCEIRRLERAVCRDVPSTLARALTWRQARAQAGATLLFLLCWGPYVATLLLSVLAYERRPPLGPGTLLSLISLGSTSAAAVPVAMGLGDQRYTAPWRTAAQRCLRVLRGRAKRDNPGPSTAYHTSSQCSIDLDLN
The experiment in a line: TGR5/CRE Luciferase Assay: In the following tables TGR5 activation by compounds and subsequent increase in intracellular cAMP were evaluated using a luciferase reporter gene assay. Human embryonic kidney (HEK) 293 cells were transiently co-transfected with pCMV tag4b-TGR5 h (to follow hTGR5 activation) or pCMV AC6-TGR5m (to follow mTGR5 activation) expression plasmids and the pCRE TA-Luciferase reporter plasmid using the JET PEI reagent (Polyplus transfection). Transfected cells were seeded in 96-well plates and incubated overnight with the test compounds at increasing concentrations tested in duplicate. Lithocolic acid (LCA) at 10 μM was used as a positive reference compound. The cAMP-dependent luciferase expression was followed using the BrightGlo reagent according to the manufacturer (Promega) instructions. Luminescence was read with a Mithras plate reader (Berthold). Data were expressed as percentage of the 10 μM LCA value and EC50 values were calculated using XL fit 5 software or GraphPad Prism 5. Concentration-response curves were fitted by a nonlinear regression analysis to a 4 parameter logistic equation. The class given is cell-based.

The EC50 is the concentration at which the effect is half-maximal. On to `COCCOCCOCCOCCOCCOCCOCCOCCOCCOc1cc(F)c(CSc2ncc(N(C)c3ccc(OC)c(OC)c3)n2-c2ccc(F)cc2)c(F)c1`, for which the results for the half-maximal effective concentration (EC50) in assay [1] and in assay [2] were 160 nM and 18 nM, respectively.

In the case of `COCCOCCOCCOCCOCCOCCOCCOCCOCCOCCOc1cc(F)c(CSc2ncc(N(C)c3ccc(OC)c(OC)c3)n2-c2ccc(F)cc2)c(F)c1`, the figures for the EC50 in assay [1] and in assay [2] were 580 nM and 29 nM, respectively.

As to `COCCOCCOCCOCCOCCOCCOCCOCCOCCOCCOCCOCCOCCOCCOCCOCCOCCOCCOCCOCCOCCOCCOCCOCCOCCOCCOCCOCCOCCOCCOCCOCCOCCOCCOCCOCCOCCOc1cc(F)c(CSc2ncc(N(C)c3ccc(OC)c(OC)c3)n2-c2ccc(F)cc2)c(F)c1`, the EC50 in assay [1] is 1200 nM; in assay [2], 68 nM.

With `COCCOCCOCCOCCOCCOCCOCCOCCOCCOCCOCCOCCOCCOCCOCCOCCOc1cc(F)c(CSc2ncc(N(C)c3ccc(OC)c(OC)c3)n2-c2ccc(F)c(OC)c2)c(F)c1`, the concentration for a half-maximal effect (EC50) in assay [1] was 330 nM; in assay [2], 26 nM.

The values are drawn from ChEMBL document CHEMBL5727106, “Imidazol- or 1,2,4-triazol-derivatives and their use” (2019).
